Earlier results in patent publication EP1147779A1, “A method for rendering ursodeoxycholic acid in soluble form pharmaceutical compositions” (BIOPROGRESS S.p.A., priority 2000, dated 2001).

Experiments:
[1] = ursodeoxycholic acid as such; background statement

Row | Compound | solubility [1] | toxicity (general statement, allowed by FAO/WHO as food additive) | passage of the intestinal mucosa / presence in plasma and urine (oral administration to humans)
1 | C[C@H](CCC(=O)O)[C@H]1CC[C@H]2[C@@H]3[C@@H](O)C[C@@H]4C[C@H](O)CC[C@]4(C)[C@H]3CC[C@]12C [Ursodeoxycholic acid] | practically insoluble |  | 
2 | β-cyclodextrin |  | no toxicity | does not overcome the barrier of the intestinal mucosa and is not found either in plasma or in urine
